Data taken from patent publication US20220288077A1, “PROSTATITIS TREATMENT” (NATIONAL INSTITUTE OF BIOLOGICAL SCIENCES, priority 2019, published 2022).

Tested on: carrageenan-induced male rat prostate disease model
Test: Carrageenan-induced male rat prostate disease model: representative RIP1, RIP3 and MLKL inhibitors
Type: in vivo
Conditions: list after the methods of the example; protocols based on RIPA-56
Method: Experimental protocols for the compounds of Table 1 were based on those used for RIPA-56. Each inhibitor was intraperitoneally or orally administrated to rat before carrageenan treatment, at the dose of 20 mg/kg to 100 mg/kg.
Each inhibitor was intraperitoneally or orally administrated to rat before carrageenan treatment, at the dose of 20 mg/kg to 100 mg/kg.
All the SD rats were randomly divided into different groups (n=8-10): control group, model group, and compounds-treated groups. For injection of carrageenan or saline, rats were anesthetized with 4% chloral hydrate and were fixed in a supine position. […] A small midline incision was made in the sterile area, then the bladder and the prostate carefully exposed. With a 30-gauge needle, 50 ul sterile suspension of 3% carrageenan (Sigma, MO, USA) or saline (sham group) was injected into both right and left ventral lobes of the prostate gland. […] While an equal amount of solvents were intraperitoneally and orally injected to control rats.

Compound	listed under heading Active RIP1 Inhibitors	listed under heading Active MLKL Inhibitors	listed under heading Active RIP3 Inhibitors
O=C(NCc1c(F)ccc(Cl)c1F)c1snnc1C1CC1 [N-(3-chloro-2,6-difluorobenzyl)-4-cyclopropyl-1,2,3-thiadiazole-5-carboxamide]	Active	–	–
CCn1c(S(C)(=O)=O)nc2c1c(=O)n(C)c(=O)n2C [TC13-74, 7-ethyl-1,3-dimethyl-8-(methylsulfonyl)-1H-purine-2,6(3H,7H)-dione]	–	Active	–
Cc1cccc2c(CC3NC(=O)N(C)C3=O)c[nH]c12 (centres unmarked) [3-methyl-5-((7-methyl-1H-indol-3-yl)methyl)imidazolidine-2,4-dione]	Active	–	–
O=C(N1CCCC1c1cccc(F)c1)C1(C(F)(F)F)CCCC1 (centres unmarked) [(2-(3-fluorophenyl)pyrrolidin-1-yl)(1-(trifluoromethyl)cyclopentyl)methanone]	Active	–	–
CCC(C)(C)C(=O)N1C(=O)C[C@H]1c1ccccc1 [(S)-1-(2,2-dimethylbutanoyl)-4-phenylazetidin-2-one]	Active	–	–
O=C(N[C@H]1COc2cc(Cl)ccc2NC1=O)c1nnc(Cc2ccccc2)[nH]1 [(S)-5-benzyl-N-(8-chloro-4-oxo-2,3,4,5-tetrahydrobenzo[b][1,4]oxazepin-3-yl)-4H-1,2,4-triazole-3-carboxamide]	Active	–	–
CN1C(=O)[C@@H](NC(=O)c2cc(Cc3ccccc3)on2)COc2ccc(-c3nnn[nH]3)cc21 [(S)-5-benzyl-N-(5-methyl-4-oxo-7-(1H-tetrazol-5-yl)-2,3,4,5-tetrahydrobenzo[b][1,4]oxazepin-3-yl)isoxazole-3-carboxamide]	Active	–	–
CN1C(=O)N[C@H](Cc2c[nH]c3c(Cl)cccc23)C1=O [(R)-5-((7-chloro-1H-indol-3-yl)methyl)-3-methylimidazolidine-2,4-dione]	Active	–	–
CN1C(=O)[C@@H](NC(=O)c2n[nH]c(Cc3ccccc3)n2)COc2ccccc21 [GSK2982772, (S)-5-benzyl-N-(5-methyl-4-oxo-2,3,4,5-tetrahydrobenzo[b]-[1,4]oxazepin-3-yl)-1H-1,2,4-triazole-3-carboxamide]	Active	–	–
CN1C(=O)[C@@H](NC(=O)c2cc(Cc3ccccc3)on2)COc2ccccc21 [GSK481, (S)-5-benzyl-N-(5-methyl-4-oxo-2,3,4,5-tetrahydrobenzo[b][1,4]oxazepin-3-yl)isoxazole-3-carboxamide]	Active	–	–
CNc1cc(C#CCn2c(=O)n(C)c(=O)c3c2nc(S(=O)(=O)Cc2cc(OC)ccc2OC)n3C)ccn1 [TC13-127, 8-((2,5-dimethoxybenzyl)sulfonyl)-1,7-dimethyl-3-(3-(2-(methylamino)pyridin-4-yl)prop-2-yn-1-yl)-3,7-dihydro-1H-purine-2,6-dione]	–	Active	–
Cc1ccc(CCCCN2C(=O)N[C@H](Cc3c[nH]c4c(Cl)cccc34)C2=O)cc1C#Cc1cnc2cccnn12 [Ponatinib-Nec1s, (R)-5-((7-chloro-1H-indol-3-yl)methyl)-3-(4-(3-(imidazo[1,2-b]pyridazin-3-ylethynyl)-4-methylphenyl)butyl)imidazolidine-2,4-dione]	Active	–	–
C#CCn1c(=O)n(C)c(=O)c2c1nc(S(C)(=O)=O)n2C [TC13-106, 1,7-dimethyl-8-(methylsulfonyl)-3-(prop-2-ynyl)-1H-purine-2,6(3H,7H)-dione]	–	Active	–
CN1C(=O)[C@@H](NC(=O)c2nnc(Cc3ccccc3)[nH]2)COc2ccccc21 [(S)-5-benzyl-N-(5-methyl-4-oxo-2,3,4,5-tetrahydrobenzo[b][1,4]oxazepin-3-yl)-4H-1,2,4-triazole-3-carboxamide]	Active	–	–
CCC(C)(C)C(=O)N(O)Cc1ccccc1 [N-Benzyl-N-hydroxy-2,2-dimethylbutanamide]	Active	–	–
Cn1c(=O)c2c(nc(S(C)(=O)=O)n2C)n(CC#N)c1=O [TC13-107, 2-(1,7-dimethyl-8-(methylsulfonyl)-2,6-dioxo-1H-purin-3(2H,6H,7H)-yl)acetonitrile]	–	Active	–
CCC(C)(C)C(=O)N(O)Cc1ccc(F)c(F)c1 [N-(3,4-Difluorobenzyl)-N-hydroxy-2,2-dimethylbutanamide]	Active	–	–
COc1nccnc1NS(=O)(=O)c1ccc(NC(=O)/C=C/c2ccc([N+](=O)[O-])s2)cc1 [Necrosulfonamide, (2E)-N-[4-[[(3-Methoxy-2-pyrazinyl)amino]sulfonyl]phenyl]-3-(5-nitro-2-thienyl)-2-propenamide]	–	Active	–
C[C@H](NC(=O)c1snnc1C1CC1)c1c(F)cccc1Cl [(S)—N-(1-(2-chloro-6-fluorophenyl)ethyl)-4-cyclopropyl-1,2,3-thiadiazole-5-carboxamide]	Active	–	–
C#CC(C)(C)C(=O)N1CC[C@H]1c1ccccc1 [(S)-2,2-dimethyl-1-(2-phenylazetidin-1-yl)but-3-yn-1-one]	Active	–	–
CCC(C)(C)C(=O)N(O)Cc1ccc(F)c(F)c1F [N-Hydroxy-2,2-dimethyl-N-(2,3,4-trifluorobenzyl)butanamide]	Active	–	–
CC(C)(C)C(=O)N1N=CC[C@H]1c1ccccc1 [GSK963, (S)-2,2-dimethyl-1-(5-phenyl-4,5-dihydro-1H-pyrazol-1-yl)propan-1-on]	Active	–	–
CN1C(=O)C(Cc2c[nH]c3ccccc23)NC1=S (centres unmarked) [Nec-1, 5-((1H-indol-3-yl)methyl)-3-methyl-2-thioxoimidazolidin-4-one]	Active	–	–
CC(C)(C)C(=O)N1N=CC[C@H]1c1ccccn1 [(S)-2,2-dimethyl-1-(5-(pyridin-2-yl)-4,5-dihydro-1H-pyrazol-1-yl)propan-1-one]	Active	–	–
O=C(N1CCCC1c1cccc(F)c1)C1(C(F)(F)F)CCC1 (centres unmarked) [(2-(3-fluorophenyl)pyrrolidin-1-yl)(1-(trifluoromethyl)cyclobutyl)methanone]	Active	–	–
CC(=O)N1CCC(C(=O)N2N=CC[C@H]2c2ccccc2)CC1 [(S)-1-(4-(5-phenyl-4,5-dihydro-1H-pyrazole-1-carbonyl)piperidin-1-yl)ethanone]	Active	–	–
CNC(=O)c1ccc2c(c1)ncn2-c1ccc(CC(=O)OC(C)(C)C)cc1 [GSK'840, tert-butyl 2-(4-(5-(methylcarbamoyl)-1H-benzo[d]imidazol-1-yl)phenyl)acetate]	–	–	Active
CC(=O)N1CCC(C(=O)N2N=CC[C@H]2c2cc(F)cc(F)c2)CC1 [(S)-1-(4-(5-(3,5-difluorophenyl)-4,5-dihydro-1H-pyrazole-1-carbonyl)piperidin-1-yl)ethanone]	Active	–	–
CN(c1ccc(NC(=O)Nc2ccc(OC(F)(F)F)cc2)cc1)c1ccnc(Nc2cccc(S(N)(=O)=O)c2)n1 [Compound 1, 3-((4-(methyl(4-(3-(4-(trifluoromethoxy)phenyl)ureido)phenyl)amino)pyrimidin-2-yl)amino)benzenesulfonamide]	–	Active	–
